Test results taken from patent publication EP3723745B1, “PHENOXY ACIDS FOR THE TREATMENT OF NEUROMUSCULAR DISORDERS” (NMD Pharma A/S, priority 2017, dated 2019).

Experiments:
CIC-1 channels = biological target: T1, CIC-1 channels (Rattus norvegicus, UniProt P35524); test: Electrophysiological measurement of compound inhibition of CIC-1 in rat muscle (Gm, three micro-electrodes technique); type: cell-based; details: reduction of Gm in fibres of whole rat soleus muscles, approx. 30°C; n = number of experiments
T1 construct: from tissue; host or cells: intact soleus muscle of 12-14-week old Wistar rats
T1 sequence (P35524 1-994): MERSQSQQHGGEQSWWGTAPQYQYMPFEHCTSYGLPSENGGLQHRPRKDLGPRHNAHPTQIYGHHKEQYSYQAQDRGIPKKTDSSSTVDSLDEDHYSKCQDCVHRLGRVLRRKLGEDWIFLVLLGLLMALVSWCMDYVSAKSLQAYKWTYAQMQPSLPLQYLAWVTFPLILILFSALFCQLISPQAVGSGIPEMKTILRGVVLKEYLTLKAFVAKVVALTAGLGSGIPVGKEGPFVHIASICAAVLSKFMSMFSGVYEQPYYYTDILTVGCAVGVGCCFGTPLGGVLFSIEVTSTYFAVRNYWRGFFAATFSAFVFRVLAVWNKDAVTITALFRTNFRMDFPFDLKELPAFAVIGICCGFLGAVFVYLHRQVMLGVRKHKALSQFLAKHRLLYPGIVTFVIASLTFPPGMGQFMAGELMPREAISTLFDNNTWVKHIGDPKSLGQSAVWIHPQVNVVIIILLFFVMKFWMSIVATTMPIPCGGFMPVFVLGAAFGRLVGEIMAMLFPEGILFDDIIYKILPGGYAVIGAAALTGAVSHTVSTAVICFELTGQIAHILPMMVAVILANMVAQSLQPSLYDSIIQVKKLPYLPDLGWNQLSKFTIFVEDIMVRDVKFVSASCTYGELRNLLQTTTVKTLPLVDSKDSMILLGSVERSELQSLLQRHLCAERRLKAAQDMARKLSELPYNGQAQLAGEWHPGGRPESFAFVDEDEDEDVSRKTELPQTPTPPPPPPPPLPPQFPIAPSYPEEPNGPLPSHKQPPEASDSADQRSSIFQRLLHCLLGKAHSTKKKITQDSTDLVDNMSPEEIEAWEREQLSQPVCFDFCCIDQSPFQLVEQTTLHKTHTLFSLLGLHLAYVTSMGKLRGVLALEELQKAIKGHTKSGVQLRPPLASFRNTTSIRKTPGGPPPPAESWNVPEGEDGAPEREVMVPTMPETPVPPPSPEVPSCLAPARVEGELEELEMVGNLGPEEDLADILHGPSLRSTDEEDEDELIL
Description: Table 2: Inhibition of CIC-1 ion channel using compounds of the invention

soleus muscles = test: Measurement of force in an in vitro model: isolated rat nerve-muscle preparation with tubocurarine; details: Rattus norvegicus, 40 min; percentage of initial force restored after 40 mins with 50 µM test compound; tubocurarine (115 nM) for 90 mins; read-out: Point increase
Method: Recovery of force is quantified as the percentage of the force prior to tubocurarine that is recovered by the compound.
The current invention relates to compounds that inhibit CIC-1 ion channels and increase muscle excitability and thereby improve muscle function in clinical conditions where muscle activation is failing. Such conditions result in loss of contractile function of skeletal muscle, weakness and excessive fatigue. In this series of experiments the compounds were tested for their ability to restore contractile function of isolated rat muscle when the neuromuscular transmission had been compromised akin to neuromuscular disorders.
Experimentally, soleus muscles from 4-5 wk old rats were isolated with the motor nerve remaining attached. The nerve-muscle preparations were mounted in experimental setups that enabled electrical stimulation of the motor nerve. Stimulation of the motor nerve led to activation of the muscle fibres and ensuing force production that was recorded.
After mounting the nerve-muscle preparation in the experimental setup, the contractile function of the muscle was initially assessed under the control conditions (Figure 2A). […] The experimental condition mimics the failing neuromuscular transmission in a range of neuromuscular disorders. After addition of tubocurarine the contractile force declined over the next 90 mins to 10-50 % of the control force. 50 µM of the test compound was then added and the contractile force recovered despite the continued presence of tubocurarine. To quantify the ability of the compound to restore force the percentage of the initial force that was restored was determined after 40 mins of compound exposure (Figure 2B) and the point increase is reported in Table 3. Table 3: Percentage increase of initial force that was restored using compounds of the invention

female Lewis rats = test: Measurement of in situ muscle contractile characteristics (isometric hindlimb force, cisatracurium block); type: in vivo, rat; details: for average increase in twitch peaks: 12 Hz; for average increase in twitch peaks / average increase in tetanic force: cisatracurium infusion; for average increase in tetanic force: 80 Hz; for restore force to muscles in vivo: muscles partially inhibited by a neuromuscular blocker, summary in words
Method: Isometric hindlimb force was measured in 12-week old female Lewis rats in the presence and absence of compound.
Rats were placed under anesthesia with isoflurane (2-4%), intubated and subsequently connected to a micro ventilator (Microvent 1, Hallowell EMC, US). Two stimulation electrodes were inserted through the skin to stimulate the sciatic nerve. A small incision was made proximal to the ankle, to expose the Achilles tendon, which was tied by cotton string, and connected to a force transducer (Fort250, World Precision Instruments) with adjustable position (Vernier control). The Achilles tendon was then cut distal to the attached cotton string. The rat was placed on a heated pad, and to prevent movement artefacts from contraction of the ankle dorsiflexors, the foot was fixated by tape on a footplate.
Muscle contractile properties were assessed by applying an electrical current (under supramaximal voltage conditions) to the nerve and recording the force generated by the muscle. The muscle was stretched until maximal force was obtained, when assessed by 2 Hz stimulation. Isometric force was measured every 30 seconds at 12 Hz (Twitch), 10 pulses, and at every 5 minutes at 80 Hz (Tetanic) for 1 second (80 pulses). This stimulation pattern was employed throughout the experiment, expect in few cases where 80 Hz stimulation was replaced by 12 Hz (10 pulses). […] When the level of neuromuscular inhibition was stable, the test article was injected i.v. at the chosen concentration. The effect of test article was assessed on its ability to increase force generated from the stimulation pattern applied. The effect was assessed in the ability to increase force per se (tetanic, 80 Hz, stimulation), and the ratio between individual twitch peaks (12 Hz stimulation). The effect was monitored for at least 1 hour after injection of test article. In addition, the time from injection of test article to maximal effect on force (both twitch and tetanic) was noted and the time for the effect to disappear (return to baseline), if possible. When appropriate the infusion of neuromuscular blocking agent was ceased, with the stimulation pattern continued, and the return of force to control levels was monitored. Animals were sacrificed by cervical dislocation while still fully sedated.

| SMILES | EC50 (CIC-1 channels) [µM] | activation at 50 µM (soleus muscles) [%] | average increase in twitch peaks (female Lewis rats; 20 mg/kg i.v.) [%] | average increase in tetanic force (female Lewis rats; 20 mg/kg i.v.) [%] | restore force to muscles in vivo (female Lewis rats) | average increase in twitch peaks (female Lewis rats; 42 mg/kg i.v.) [%] | average increase in tetanic force (female Lewis rats; 42 mg/kg i.v.) [%] | average increase in twitch peaks (female Lewis rats; 40 mg/kg i.v.) [%] | average increase in tetanic force (female Lewis rats; 40 mg/kg i.v.) [%] |
| --- | --- | --- | --- | --- | --- | --- | --- | --- | --- |
| [2H][C@@](CC)(Oc1ccc(Br)cc1)C(=O)O [Compound A-60, (2S)-2-(4-bromophenoxy)(2-^2H)butanoic acid] | 7.5 ± 1 | 62 | 18.5 | 52.7 | can restore force | – | – | – | – |
| O=C(O)[C@H](CCF)Oc1ccc(Br)cc1 [Compound A-87, (2S)-2-(4-bromophenoxy)-4-fluorobutanoic acid] | 4.5 ± 0.8 | 37 | – | – | can restore force | 5.8 | 19.3 | – | – |
| CC(C)[C@H](Oc1ccc(Br)cc1F)C(=O)O [Compound A-27, (2S)-2-(4-bromo-2-fluorophenoxy)-3-methylbutanoic acid] | 4.5 | 46 | – | – | can restore force | – | – | 12.2 | 36.4 |
